Results reported in patent publication US12091425B2 (AMGEN INC., priority 2016, dated 2024).

Molecular target: T1, Mcl-1/Bim interaction, recombinant human Mcl-1 (171-327) (Homo sapiens, UniProt Q07820)
T1 construct: made in house
Experiment: Cell free Mcl-1: Bim Affinity Assay (Mcl-1 HTRF)
Type: binding
Settings: TR-FRET, 0.1 nM Mcl-1 (171-327), 0.05 nM biotin-Bim (51-76)
Summary of the method: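 Displacement of biotinylated Bim 51-76 peptide is followed by TR-FRET. Incubation runs overnight. Duplicate points are fitted with a four-parameter sigmoid to yield IC50.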

T1 sequence (Q07820 171-327): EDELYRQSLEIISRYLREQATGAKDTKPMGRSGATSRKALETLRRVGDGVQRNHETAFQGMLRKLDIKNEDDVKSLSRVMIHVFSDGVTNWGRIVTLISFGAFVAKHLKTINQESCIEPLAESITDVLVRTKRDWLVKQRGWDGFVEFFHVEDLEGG

SMILES	IC50 [nM]
CC[C@@H]1CC/C=C\[C@H](OCC(=O)NC)[C@@H]2CC[C@H]2CN2C[C@@]3(CCCc4cc(Cl)ccc43)COc3ccc(cc32)C(=O)NS1(=O)=O [Example 964, 2-(((1S,3′R,6′R,7′S,8′Z,12′R)-6-chloro-12′-ethyl-13′,13′-dioxido-15′-oxo-3,4-dihydro-2H-spiro[naphthalene-1,22′-[20]oxa[13]thia[1,14]diazatetracyclo[14.7.2.0^3,6.0^19,24]pentacosa [8,16,18,24]tetraen]-7′-yl)oxy)-N-methylacetamide]	1.01

Same assay, conditions: cell free Mcl-1:Bim TR-FRET, recombinant human Mcl-1 (171-327)

SMILES	IC50 [nM]
O=C1NS(=O)(=O)C/C=C/C[C@H](O)[C@@H]2CC[C@H]2CN2C[C@@]3(CCCc4cc(Cl)ccc43)COc3ccc1cc32 [Example 771, (1S,3′R,6′R,7′S,9′E)-6-chloro-7′-hydroxy-3,4-dihydro-2H,14′H-spiro[naphthalene-1,21′-[19]oxa[12]thia[1,13]diazatetracyclo [13.7.2.0^3,6.0^18,23]tetracosa[9,15,17,23]tetraen]-14′-one 12′,12′-dioxide]	4.09
O=C1NS(=O)(=O)CCOCC[C@H](O)[C@@H]2CC[C@H]2CN2C[C@@]3(CCCc4cc(Cl)ccc43)COc3ccc1cc32 [Example 779, (3′R,6′R,7S,22S)-6′-chloro-7-hydroxy-3′,4′-dihydro-2′H,15H-spiro[10,20-dioxa-13-thia-1,14-diazatetracyclo[14.7.2.0^3,6.0^19,24]pentacosa-16,18,24-triene-22, 1′-naphthalen]-15-one-13, 13-dioxide or (3′R,6′R,7R,22S)-6′-chloro-7-hydroxy-3′,4′-dihydro-2′H,15H-spiro[10,20-dioxa-13-thia-1,14-diazatetracyclo[14.7.2.0^3,6.0^19,24]pentacosa-16,18,24-triene-22, 1′-naphthalen]-15-one-13, 13-dioxide]	5.55
CC[C@@H]1CC/C=C/[C@H](OC2COC2)[C@@H]2CC[C@H]2CN2C[C@@]3(CCCc4cc(Cl)ccc43)COc3ccc(cc32)C(=O)NS1(=O)=O [Example 783, (1S,3′R,6′R,7′S,8′E,12′R)-6-chloro-12′-ethyl-7′-(3-oxetanyloxy)-3,4-dihydro-2H,15′H-spiro[naphthalene-1,22′-[20]oxa[13]thia[1,14]diazatetracyclo [14.7.2.0^3,6.0^19,24]pentacosa[8,16,18,24]tetraen]-15′-one 13′,13′-dioxide]	1.04
O=C1NS(=O)(=O)CC/C=C\C[C@H](O)[C@@H]2CC[C@H]2CN2C[C@@]3(CCCc4ccccc43)COc3ccc1cc32 [Example 807, (1S,3′R,6′R,7′S,9′Z)-7′-hydroxy-3,4-dihydro-2H,15′H-spiro[naphthalene-1,22′-[20]oxa[13]thia [1,14]diazatetracyclo[14.7.2.0^3,6.0^19,24]pentacosa[9,16,18,24]tetraen]-15′-one 13′,13′-dioxide]	42.3
O=C1NS(=O)(=O)C/C=C/CC[C@H](O)[C@@H]2CC[C@H]2CN2C[C@@]3(CCCc4cc(Cl)ccc43)COc3ccc1cc32 [Example 808, (1S,3′R,6′R,7′S,10′E)-6-chloro-7′-hydroxy-3,4-dihydro-2H,15′H-spiro[naphthalene-1,22′-[20]oxa[13]thia[1,14]diazatetracyclo[14.7.2.0^3,6.0^19,24]pentacosa [10,16,18,24]tetraen]-15′-one 13′,13′-dioxide]	1.54
O=C1NS(=O)(=O)CCOC/C=C/[C@@H]2CC[C@H]2CN2C[C@@]3(CCc4cc(Cl)ccc43)COc3ccc1cc32 [Example 817, (3R,6S,7E,22S)-5′-chloro-2′,3′-dihydro-15H-spiro[10,20-dioxa-13-thia-1,14-diazatetracyclo[14.7.2.0^3,6.0^19,24]pentacosa-7,16,18,24-tetraene-22,1′-inden]-15-one 13,13-dioxide]	29.3
O=C1NS(=O)(=O)CCCCC[C@@H]2CC[C@H]2CN2C[C@@]3(CCCc4cc(Cl)ccc43)COc3ccc1cc32 [Example 818, (1S,3′R,6′R)-6-chloro-3,4-dihydro-2H,14′H-spiro[naphthalene-1,21′-[19]oxa[12]thia[1,13]diazatetracyclo[13.7.2.0^3,6.0^18,23]tetracosa[15,17,23]trien]-14′-one 12′,12′-dioxide]	13.6
O=C1NS(=O)(=O)CCCCC[C@@H]2CC[C@H]2CN2C[C@@]3(CCCc4ccccc43)COc3ccc1cc32 [Example 823, (1S,3′R,6′R)-3,4-dihydro-2H,14′H-spiro[naphthalene-1,21′-[19]oxa[12]thia[1,13]diazatetracyclo[13.7.2.0^3,6.0^18,23]tetracosa [15,17,23]trien]-14′-one 12′,12′-dioxide]	48.2
O=C1NS(=O)(=O)CC/C=C/[C@@H]2CC[C@H]2CN2C[C@@]3(CCCc4cc(Cl)ccc43)COc3ccc1cc32 [Example 825, (1S,3′R,6′S, 7′E)-6-chloro-3,4-dihydro-2H,13′H-spiro[naphthalene-1,20′-[18]oxa[11]thia[1,12]diazatetracyclo[12.7.2.0^3,6.0^17,22]tricosa[7,14,16,22]tetraen]-13′-one 11′,11′-dioxide]	26.4
O=C1NS(=O)(=O)CCC/C=C/[C@@H]2CC[C@H]2CN2C[C@@]3(CCCc4cc(Cl)ccc43)COc3ccc1cc32 [Example 829, (1S,3′R,6′S, 7′E)-6-chloro-3,4-dihydro-2H,14′H-spiro[naphthalene-1,21′-[19]oxa[12]thia[1,13]diazatetracyclo[13.7.2.0^3,6.0^18,23]tetracosa [7,15,17,23]tetraen]-14′-one 12′,12′-dioxide]	9.87
O=C1NS(=O)(=O)CCCC[C@@H]2CC[C@H]2CN2C[C@@]3(CCCc4cc(Cl)ccc43)COc3ccc1cc32 [Example 830, (1S,3′S,6′S)-6-chloro-3,4-dihydro-2H,13′H-spiro[naphthalene-1,20′-[18]oxa[11]thia[1,12]diazatetracyclo[14.7.2.0^3,6.0^19,24]tricosa[14, 16,22]trien]-13′-one 11′,11′-dioxide]	21.1
O=C1NS(=O)(=O)CCCCCC(=O)[C@@H]2CC[C@H]2CN2C[C@@]3(CCCc4cc(Cl)ccc43)COc3ccc1cc32 [Example 832, (1S,3′R,6′R)-6-chloro-3,4-dihydro-2H,7′H,15′H-spiro[naphthalene-1,22′-[20]oxa[13]thia[1,14]diazatetracyclo[14.7.2.0^3,6.0^19,24]pentacosa [16,18,24]triene]-7′,15′-dione 13′,13′-dioxide]	8.26
O=C1NS(=O)(=O)CCCCCC[C@H](O)[C@@H]2CC[C@H]2CN2C[C@@]3(CCCc4cc(Cl)ccc43)COc3ccc1cc32 [Example 835, (1S,3′R,6′R,7′S)-6-chloro-7′-hydroxy-3,4-dihydro-2H,16′H-spiro[naphthalene-1,23′[21]oxa[14]thia[1,15]diazatetracyclo[15.7.2.0^3,6.0^20,25]hexacosa[17,19,25]trien]-16′-one 14′,14′-dioxide]	3.44
O=C1NS(=O)(=O)CCCCC[C@@H](O)[C@@H]2CC[C@H]2CN2C[C@@]3(CCCc4cc(Cl)ccc43)COc3ccc1cc32 [Example 843, (1S,3′R,6′R,7′R)-6-chloro-7′-hydroxy-3,4-dihydro-2H,15′H-spiro[naphthalene-1,22′-[20]oxa[13]thia[1,14]diazatetracyclo[14.7.2.0^3,6.0^19,24]pentacosa [16,18,24]trien]-15′-one 13′,13′-dioxide]	6.8
O=C1NS(=O)(=O)CCCC/C=C/[C@@H]2CC[C@H]2CN2C[C@@]3(CCCc4cc(Cl)ccc43)COc3ccc1cc32 [Example 858, (1S,3′R,6′S, 7′E)-6-chloro-3,4-dihydro-2H,15′H-spiro[naphthalene-1,22′-[20]oxa[13]thia[1,14]diazatetracyclo[14.7.2.0^3,6.0^19,24]pentacosa [7,16,18,24]tetraen]-15′-one 13′,13′-dioxide]	27.8
C=C1/C=C/CC[C@@H](CC)S(=O)(=O)NC(=O)c2ccc3c(c2)N(C[C@@H]2CC[C@@H]12)C[C@@]1(CCCc2cc(Cl)ccc21)CO3 [Example 872, (1S,3′R,6′R,8′E,12′R)-6-chloro-12′-ethyl-7′-methylidene-3,4-dihydro-2H,15′H-spiro[naphthalene-1,22′-[20]oxa[13]thia[1,14]diazatetracyclo[14.7.2.0^3,6.0^19,24]pentacosa [8,16,18,24]tetraen]-15′-one 13′,13′-dioxide]	6.36
C=C1CCCCCS(=O)(=O)NC(=O)c2ccc3c(c2)N(C[C@@H]2CC[C@@H]12)C[C@@]1(CCCc2cc(Cl)ccc21)CO3 [Example 904, (1S,3′R,6′R)-6-chloro-7′-methylidene-3,4-dihydro-2H,15′H-spiro[naphthalene-1,22′-[20]oxa[13]thia[1,14]diazatetracyclo[14.7.2.0^3,6.0^19,24]pentacosa [16,18,24]trien]-15′-one 13′,13′-dioxide]	16.2
O=C1NS(=O)(=O)CC/C=C/CC(=O)[C@@H]2CC[C@H]2CN2C[C@@]3(CCCc4cc(Cl)ccc43)COc3ccc1cc32 [Example 905, (1S,3′R,6′R,9′E)-6-chloro-3,4-dihydro-2H,7′H,15′H-spiro[naphthalene-1,22′-[20]oxa[13]thia[1,14]diazatetracyclo[14.7.2.0^3,6.0^19,24]pentacosa [9,16,18,24]tetraene]-7′,15′-dione 13′,13′-dioxide]	14.1
CC[C@@H]1CC/C=C/C(=O)[C@@H]2CC[C@H]2CN2C[C@@]3(CCCc4cc(Cl)ccc43)COc3ccc(cc32)C(=O)NS1(=O)=O [Example 915, (1S,3′R,6′R,8′E,12′R)-6-chloro-12′-ethyl-3,4-dihydro-2H,7′H,15′H-spiro[naphthalene-1,22′-[20]oxa[13]thia[1,14]diazatetracyclo[14.7.2.0^3,6.0^19,24]pentacosa [8,16,18,24]tetraene]-7′,15′-dione 13′,13′-dioxide]	16.2
O=C1CC[C@@H]2CC[C@H]2CN2C[C@@]3(CCCc4cc(Cl)ccc43)COc3ccc(cc32)C(=O)NS(=O)(=O)CCN1 [Example 945, (1S,3′R,6′S)-6-chloro-3,4-dihydro-2H,9′H,15′H-spiro[naphthalene-1,22′-[20]oxa[13]thia[1,10,14]triazatetracyclo[14.7.2.0^3,6.0^19,24]pentacosa[16,18,24]triene]-9′,15′-dione 13′,13′-dioxide]	12
